# In patent publication US20050209256A1, “Novel beta-turn mimetics as calcitonin gene related peptide receptor antagonists” (priority 2004, published 2005):
# Target: T1, human CGRP receptor (Homo sapiens, UniProt O60894+Q16602)
# T1 construct: SK-N-MC cells that endogenously express the human CGRP receptor; endogenous in cells; host or cells: SK-N-MC cells (membrane homogenates)
# Experiment: Radioligand binding assay, [125I]-CGRP competition on SK-N-MC cell homogenates
# Conditions: Binding data, [125I]-CGRP 40 pM, room temperature
# Method: Tissue culture. SK-N-MC cells were grown at 37° C. in 5% CO2 as a monolayer in medium consisting of MEM with Earle's salts and L-glutamine (Gibco) supplemented with 10% fetal bovine serum (Gibco).
# Radioligand binding assays. Cells were rinsed twice with phosphate-buffered saline (155 mM NaCl, 3.3 mM Na2HPO4, 1.1 mM KH2PO4, pH 7.4), and incubated for 5-10 min. at 4° C. in hypotonic lysis buffer consisting of 10 mM Tris (pH 7.4) and 5 mM EDTA. Cells were transferred from plates to polypropylene tubes (16×100 mm), homogenized and centrifuged at 32,000×g for 30 min. Pellets were resuspended in buffer consisting of 50 mM Tris (pH 7.4) and 1 mM EDTA, homogenized, and centrifuged again at 32,000×g for 30 min. Pellets were resuspended in 100 mM Tris-Cl pH 7.5, 10 mM MgCl2, 0.1% mammalian protease inhibitor cocktail (Sigma) and stored at −80° C. until needed. On the day of an experiment, homogenates were thawed and homogenized again. Binding of [^125I]-CGRP (NEN) was carried out in buffer containing 50 mM Tris-Cl pH 7.5, 5 mM MgCl2, 0.5% BSA. Homogenates (3.5 μg protein/well) were incubated with competitor compounds (solubilized in 100% DMSO at 100× their final assay concentrations) for one hour at room temperature. Then [^125I]-CGRP was added (40 pM final concentration) and the reaction incubated for one additional hour at room temperature. Assays were stopped by addition of cold wash buffer (20 mM Tris-Cl pH 7.5, 0.1% BSA) immediately followed by filtration over glass fiber filters (Whatman GF/B) previously soaked in 0.5% PEI. Non-specific binding was defined with 100 nM CGRP.
row,Structure (SMILES),IC50 [nM]
1,"CC(=O)c1ccc(NC(=O)N2CCC(=O)N3[C@@H]2CN(CCc2cccc(F)c2)C(=O)[C@@H]3COCc2ccccc2)cc1 [Compound 32, (6S,9aS)-6-Benzyloxymethyl-8-[2-(3-fluoro-phenyl)-ethyl]-4,7-dioxo-hexahydro-pyrazino[1,2-a]pyrimidine-1-carboxylic acid (4-acetyl-phenyl)-amide]",598
2,"CC(=O)c1ccc(NC(=O)N2CCC(=O)N3[C@@H]2CN(CCc2cccc(F)c2)C(=O)[C@@H]3Cc2ccc(OCc3ccccc3)cc2)cc1 [Compound 33, (6S,9aS)-6-(4-Benzyloxy-benzyl)-8-[2-(3-fluoro-phenyl)-ethyl]-4,7-dioxo-hexahydro-pyrazino[1,2-a]pyrimidine-1-carboxylic acid (4-acetyl-phenyl)-amide]",2260
3,"CC(=O)c1ccc(NC(=O)N2CCC(=O)N3[C@@H]2CN(CCc2cccc(F)c2)C(=O)[C@@H]3Cc2cc(Br)c(O)c(Br)c2)cc1 [Compound 34, (6S,9aS)-6-(3,5-Dibromo-4-hydroxy-benzyl)-8-[2-(3-fluoro-phenyl)-ethyl]-4,7-dioxo-hexahydro-pyrazino[1,2-a]pyrimidine-1-carboxylic acid (4-acetyl-phenyl)-amide]",1170
4,"CC(=O)c1ccc(NC(=O)N2c3cc4ccccc4cc3C(=O)N3[C@@H](C4CCOCC4)C(=O)N(CCc4cccc(F)c4)C[C@H]23)cc1 [Compound 53, (4S,12S)-2-[2-(3-Fluoro-phenyl)-ethyl]-3,5-dioxo-4-(tetrahydro-pyran-4-yl)-1,3,4,12a-tetrahydro-2H,5H-2,4a,12-triaza-naphthacene-12-carboxylic acid (4-acetyl-phenyl)-amide]",2970
5,"CC(=O)c1ccc(NC(=O)N2CCC(=O)N3[C@@H]2CN(CCc2cccc(F)c2)C(=O)[C@@H]3Cc2cc(F)cc(F)c2)cc1 [Compound 55, (6S,9aS)-6-(3,5-Difluoro-benzyl)-8-[2-(3-fluoro-phenyl)-ethyl]-4,7-dioxo-hexahydro-pyrazino[1,2-a]pyrimidine-1-carboxylic acid (4-acetyl-phenyl)-amide]",400
6,"CC(=O)c1ccc(NC(=O)N2CCC(=O)N3[C@@H]2CN(CCc2cccc(F)c2)C(=O)[C@@H]3Cc2cc(F)c(F)c(F)c2)cc1 [Compound 56, (6S,9aS)-8-[2-(3-Fluoro-phenyl)-ethyl]-4,7-dioxo-6-(3,4,5-trifluoro-benzyl)-hexahydro-pyrazino[1,2-a]pyrimidine-1-carboxylic acid (4-acetyl-phenyl)-amide]",665
7,"CC(=O)c1ccc(NC(=O)N2CCC(=O)N3[C@@H]2CN(CCc2cccc(F)c2)C(=O)[C@@H]3Cc2c(F)c(F)c(F)c(F)c2F)cc1 [Compound 57, (6S,9aS)-8-[2-(3-Fluoro-phenyl)-ethyl]-4,7-dioxo-6-pentafluorophenylmethyl-hexahydro-pyrazino [1,2a]pyrimidine-1-carboxylic acid (4-acetyl-phenyl)-amide]",500
8,"CC(=O)c1ccc(NC(=O)N2CCC(=O)N3[C@@H]2CN(CCc2cccc(F)c2)C(=O)[C@@H]3Cc2ccc(F)cc2)cc1 [Compound 58, (6S,9aS)-6-(4-Fluoro-benzyl)-8-[2-(3-fluoro-phenyl)-ethyl]-4,7-dioxo-hexahydro-pyrazino[1,2-a]pyrimidine-1-carboxylic acid (4-acetyl-phenyl)-amide]",814
9,"CC(=O)c1ccc(NC(=O)N2CCC(=O)N3[C@@H](c4ccc(F)c(F)c4)C(=O)N(CCc4ccccc4)C[C@H]23)cc1 [Compound 59, (6S,9aS)-6-(3,4-Difluoro-phenyl)-4,7-dioxo-8-phenethyl-hexahydro-pyrazino[1,2-a]pyrimidine-1-carboxylic acid (4-acetyl-phenyl)-amide]",271
10,"CC(=O)c1ccc(NC(=O)N2CCC(=O)N3[C@@H]2CN(CCc2cccc(F)c2)C(=O)[C@@H]3Cc2ccc(F)c(F)c2)cc1 [Compound 62, (6S,9aS)-6-(3,4-Difluoro-benzyl)-8-[2-(3-fluoro-phenyl)-ethyl]-4,7-dioxo-hexahydro-pyrazino[1,2-a]pyrimidine-1-carboxylic acid (4-acetyl-phenyl)-amide]",624
11,"CC(=O)c1ccc(NC(=O)N2CCC(=O)N3[C@@H]2CN(CCc2ccccc2)C(=O)[C@@H]3Cc2ccc(F)c(F)c2)cc1 [Compound 63, (6S,9aS)-6-(3,4-Difluoro-benzyl)-4,7-dioxo-8-phenethyl-hexahydro-pyrazino[1,2-a]pyrimidine-1-carboxylic acid (4-acetyl-phenyl)-amide]",3040
12,"CC(=O)c1ccc(NC(=O)N2CCC(=O)N3[C@@H](c4ccccc4)C(=O)N(CCc4ccccc4)C[C@H]23)cc1 [Compound 64, (6S,9aS)-4,7-Dioxo-8-phenethyl-6-phenyl-hexahydro-pyrazino[1,2-a]pyrimidine-1-carboxylic acid (4-acetyl-phenyl)-amide]",473
13,"CC(=O)c1ccc(NC(=O)N2CCC(=O)N3[C@@H]2CN(CCc2ccccc2)C(=O)[C@@H]3CC2CCCCC2)cc1 [Compound 65, (6S,9aS)-6-Cyclohexylmethyl-4,7-dioxo-8-phenethyl-hexahydro-pyrazino[1,2-a]pyrimidine-1-carboxylic acid (4-acetyl-phenyl)-amide]",517
14,"NC(=O)c1ccc(NC(=O)N2CCC(=O)N3[C@@H]2CN(CCc2ccccc2)C(=O)[C@@H]3CC2CCCCC2)cc1 [Compound 111, (6S,9aS)-6-Cyclohexylmethyl-4,7-dioxo-8-phenethyl-hexahydro-pyrazino[1,2-a]pyrimidine-1-carboxylic acid (4-carbamoyl-phenyl)-amide]",12000

# The next lines start with the values.
row,IC50 [nM],Structure (SMILES)
1,350,"CC(=O)c1ccc(NC(=O)N2CCC(=O)N3[C@@H]2CN(CCc2cccc(F)c2)C(=O)[C@@H]3CCS(C)(=O)=O)cc1 [Compound 36, (6S,9aS)-8-[2-(3-Fluoro-phenyl)-ethyl]-6-(2-methanesulfonyl-ethyl)-4,7-dioxo-hexahydro-pyrazino[1,2-a]pyrimidine-1-carboxylic acid (4-acetyl-phenyl)-amide]"
2,233,"CC[C@@H](C)[C@H]1C(=O)N(CCc2cccc(F)c2)C[C@@H]2N(C(=O)Nc3ccc(C(C)=O)cc3)CCC(=O)N12 [Compound 39, (6S,9aS)-6-(1R-methyl-propyl)-8-[2-(3-fluoro-phenyl)-ethyl]--4,7-dioxo-hexahydro-pyrazino[1,2-a]pyrimidine-1-carboxylic acid (4-acetyl-phenyl)-amide]"
3,2360,"CC(=O)c1ccc(NC(=O)N2CCC(=O)N3[C@@H]2CN(CCc2cccc(F)c2)C(=O)[C@@H]3CCC(N)=O)cc1 [Compound 40, (6S,9aS)-6-(2-Carbamoyl-ethyl)-8-[2-(3-fluoro-phenyl)-ethyl]-4,7-dioxo-hexahydro-pyrazino[1,2-a]pyrimidine-1-carboxylic acid (4-acetyl-phenyl)-amide]"
4,4000,"CC(=O)c1ccc(NC(=O)N2CCC(=O)N3[C@@H](C4CCNCC4)C(=O)N(CCc4cccc(F)c4)C[C@H]23)cc1 [Compound 43, (6S,9aS)-8-[2-(3-Fluoro-phenyl)-ethyl]-4,7-dioxo-6-piperidin-4-yl-hexahydro-pyrazino[1,2-a]pyrimidine-1-carboxylic acid (4-acetyl-phenyl)-amide]"
5,167,"CC(=O)c1ccc(NC(=O)N2CCC(=O)N3[C@@H](c4ccccc4)C(=O)N(CCc4cccc(F)c4)C[C@H]23)cc1 [Compound 46, (6S,9aS)-8-[2-(3-Fluoro-phenyl)-ethyl]-4,7-dioxo-6-phenyl-hexahydro-pyrazino[1,2-a]pyrimidine-1-carboxylic acid (4-acetyl-phenyl)-amide]"
6,115,"CC(=O)c1ccc(NC(=O)N2CCC(=O)N3[C@@H](C4CCCCC4)C(=O)N(CCc4cccc(F)c4)C[C@H]23)cc1 [Compound 48, (6S,9aS)-6-Cyclohexyl-8-[2-(3-fluoro-phenyl)-ethyl]-4,7-dioxo-hexahydro-pyrazino[1,2-a]pyrimidine-1-carboxylic acid (4-acetyl-phenyl)-amide]"
7,358,"CC(=O)c1ccc(NC(=O)N2CCC(=O)N3[C@@H](C4CCOCC4)C(=O)N(CCc4cccc(F)c4)C[C@H]23)cc1 [Compound 52, (6S,9aS)-8-[2-(3-Fluoro-phenyl)-ethyl]-4,7-dioxo-6-(tetrahydro-pyran-4-yl)-hexahydro-pyrazino[1,2-a]pyrimidine-1-carboxylic acid (4-acetyl-phenyl)-amide]"
8,1270,"CC(=O)c1ccc(NC(=O)N2CCC(=O)N3[C@@H]2CN(CCc2cccc(F)c2)C(=O)[C@@H]3Cc2cncn2C)cc1 [Compound 54, (6S,9aS)-8-[2-(3-Fluoro-phenyl)-ethyl]-6-(3-methyl-3H-imidazol-4-ylmethyl)-4,7-dioxo-hexahydro-pyrazino[1,2-a]pyrimidine-1-carboxylic acid (4-acetyl-phenyl)-amide]"
